Data as given in PMC12294558, “New 1,2,4-Triazole Derivatives with a N-Mannich Base Structure Based on a 4,6-Dimethylpyridine Scaffold as Anticancer Agents: Design, Synthesis, Biological Evaluation, and Molecular Modeling” (International Journal of Molecular Sciences, 2025).
Marks after values point to notes of the source that are not given here.

Columns and labels:
[1] = tested on: NUGC cell line; set-up: method as in PMID 25948330; settings: cited from earlier work
[2] = tested on: LoVo/Dx cells; assay: MTT viability assay, doxorubicin-resistant LoVo/Dx; format: cell-based, human; settings: for SI, LoVo/Dx: CC50 CCD 841 CoTr / CC50 LoVo/Dx; for CC50: Homo sapiens, LoVo/DX, MTT, 24 h, read-out: CC50 ± SD, LoVo/Dx
Method: (§1) The cytotoxic effects of ten newly synthesized N-Mannich bases were assessed on the normal human intestinal epithelium (CCD 841 CoTr) and cancer cell lines: gastric cancer (EPG) and four colorectal cancer lines (Caco-2, LoVo, LoVo/Dx, and HT-29). Cell viability was evaluated using the MTT assay in accordance with Annex C of ISO 10993-5 [33].
(§2) The biological activity of the newly synthesized compounds was assessed in the context of anticancer activity. For this purpose, several gastrointestinal cancer lines were selected: gastric cancer (EPG 257, which belongs to the collection of the Laboratory of Cell Culture and Advanced Therapy at the University of Environmental and Life Sciences in Wrocław), and four colorectal cancer cell lines (LoVo, Caco-2, and HT-29) were obtained from the European Collection of Authenticated Cell Cultures (ECACC) and were delivered by Sigma-Aldrich, a certified distributor for the biobank. Additionally, LoVo cells were used to develop a doxorubicin-resistant subline, referred to as LoVo/Dx. Resistance was induced through gradual adaptation to increasing concentrations of doxorubicin, starting from 0.1 µg/mL and incrementally raised to 0.8 µg/mL. After reaching the maximum concentration, the cells were maintained in a medium containing 0.4 µg/mL doxorubicin for a period of three months to stabilize the resistant phenotype. […] The resulting LoVo/Dx subline, resistant to doxorubicin, was cultured in DMEM/F-12 medium and utilized in assays evaluating the effectiveness of novel compounds against multidrug-resistant cancer cells. […] The non-cancerous cell control was normal colonic epithelial cells (CCD 841 CoTr from American Type Culture Collection, (ATCC, Manassas, VA, USA)). Cell cultures were performed under standard conditions (5% CO2, 95% humidity, and 37 °C). Each cell line was cultured in the recommended medium: (1) HT-29 in McCoy’s 5a, (2) Caco-2 in Minimal Essential Medium (MEM, Biological Industries, Beit Haemek, Israel), (3) CCD 841 CoTr in Dulbecco’s Modified Eagle Medium (DMEM, Biological Industries, Beit Haemek, Israel), (4) LoVo in Dulbecco’s Modified Eagle Medium/F-12 (DMEM/F-12; Biological Industries, Beit Haemek, Israel), (5) LoVo/Dx in DMEM/F-12, and (6) EPG in DMEM. Culture media were supplemented with 10% fetal bovine serum (FBS, Sigma-Aldrich, Darmstadt, Germany) and antibiotics (penicillin and streptomycin; Sigma-Aldrich, Darmstadt, Germany). For assays, trypsinized (TrypLE solution, Thermo Fisher Scientific, Waltham, MA, USA) cells were seeded at appropriate densities of 10,000 cells per well for MTT and determination of apoptotic and necrotic cell numbers; 30,000 cells per well for the rhodamine accumulation assay; and 500,000 cells per well for ELISA tests.
(§3) The cytotoxicity of the compounds and drugs used as controls was assessed using the MTT assay. The assay also included a DMSO control. After seeding and allowing the cells to adhere overnight, they were treated with the tested compounds and drugs for another 24 h. After this time, the supernatant was removed, and a 1 mg/mL MTT solution was added for 2 h in 5% CO2, 95% humidity, at 37 °C. The supernatant was then removed, and isopropanol was added to dissolve the purple crystals over 30 min by shaking. Absorbance was measured at 570 nm in a Multiskan GO microplate reader (Thermo Fisher Scientific; Waltham, MA, USA). All reagents used for the assays were purchased from Sigma-Aldrich, Darmstadt, Germany.
(§4) Biological assays were performed in three independent replicates, each involving four samples. ELISA determinations were repeated three times.

[3] = tested on: EPG cells; assay: MTT viability assay, gastric cancer cells; format: cell-based, human; settings: for SI, EPG: CC50 CCD 841 CoTr / CC50 EPG; for CC50: Homo sapiens, MTT, 24 h, read-out: CC50 ± SD, EPG
Method: as §1, §2, §3, §4

[4] = tested on: Caco-2 cells; assay: MTT viability assay, colorectal cancer cells Caco-2; format: cell-based, human; settings: for SI, Caco-2: CC50 CCD 841 CoTr / CC50 Caco-2; for CC50: Homo sapiens, Caco-2, MTT, 24 h, read-out: CC50 ± SD, Caco-2
Method: as §1, §2, §3, §4

[5] = tested on: HT-29 cells; assay: MTT viability assay, colorectal cancer cells HT-29; format: cell-based, human; settings: for SI, HT-29: CC50 CCD 841 CoTr / CC50 HT-29; for CC50: Homo sapiens, HT-29, MTT, 24 h, read-out: CC50 ± SD, HT-29
Method: as §1, §2, §3, §4

[6] = tested on: CCD 841 CoTr cells; assay: MTT viability assay, normal colonic epithelial cells; format: cell-based, human; settings: 24 h, Non-toxic = no toxicity in tested range 1–500 μM
Method: as §1, §2, §3, §4

[7] = tested on: LoVo cells; assay: MTT viability assay, colorectal cancer cells LoVo; format: cell-based, human; settings: for SI, LoVo: CC50 CCD 841 CoTr / CC50 LoVo; for CC50: Homo sapiens, LoVo, MTT, 24 h, Non-toxic = no toxicity in tested range 1–500 μM, read-out: CC50 ± SD, LoVo
Method: as §1, §2, §3, §4

[8] = tested on: p53; assay: p53 Human ELISA on HT-29 cell lysates; format: cell-based; settings: HT-29, 1 µM, 24 h
Method: (§5) To check the effect of compound 6 on the level of p-53 and caspase-3 protein, another test was performed on HT-29 cells, taking doxorubicin as the reference drug.
(§6) To assess the level of caspase-3 and p53 protein, HT-29 cell lysates were used after 24 h of incubation with compounds 5 and 6. The supernatant was collected in the prepared and labeled tubes, the cells from the wells were scraped, and the wells were washed with cold PBS, which was also collected. The tubes were then centrifuged, the supernatant was removed, and the cell pellet was lysed in a cell extraction vessel for 30 min on ice, with […] every 10 min. The lysate was transferred to centrifuge tubes and centrifuged at 13,000 rpm for 10 min at 4 °C. The supernatant was transferred to clean tubes in a microcentrifuge.
(§7) The following kits were used: Human Caspase-3 (active) ELISA Kit (KHO1091) and p53 Human ELISA Kit (BMS256), used following the manufacturer’s instructions. ELISA kits were purchased from Thermo Fisher Scientific (Waltham, MA, USA). The absorbance was measured using a Multiskan GO microplate reader (Thermo Fisher Scientific, Waltham, MA, USA) at wavelengths specific to each kit, as recommended by the manufacturer.

[9] = tested on: Caspase-3; assay: Human Caspase-3 (active) ELISA on HT-29 cell lysates; format: cell-based; settings: HT-29, 1 µM, 24 h
Method: as §5, §6, §7

[10] = MTT viability assay, normal colonic epithelial cells; format: cell-based, human; settings: human, CCD 841 CoTr normal colonic epithelial cells, Non-toxic = no toxicity in tested range 1–500 μM, read-out: CC50 ± SD, CCD 841 CoTr
Method: as §1, §2, §3, §4

[11] = tested on: OVCAR-3 cell line; set-up: method as in PMID 33482607; settings: cited from earlier work
[12] = tested on: HepG2 cells; set-up: method as in PMID 36181443; settings: cited from earlier work

Compound: CN1CCN(Cn2nc(-c3ccncc3)n(-c3ccc(Br)cc3)c2=S)CC1 [VIII]
- IC50 [1]: 0.021 µM

Compound: Cc1cc(C)c(C(=O)NCc2nn(CN3CCN(c4ccc([N+](=O)[O-])cc4)CC3)c(=S)n2C)c(S)n1 [Compound 10, 4,6-dimethyl-N-[(4-methyl-5-thioxo-2-{[4-(4-nitrophenyl)piperazinyl]methyl}-4,5-dihydro-1H-1,2,4-triazol-3-yl)methyl]-2-sulfanylpyridine-3-carboxamide]
- SI, LoVo/Dx [2]: >>1 ^c
- CC50 [2]: 210 ± 3.3 µM
- SI, EPG [3]: >>1 ^c
- CC50 [3]: 212 ± 3.7 µM
- SI, Caco-2 [4]: >>1 ^c
- CC50 [4]: 87.2 ± 5.2 µM
- SI, HT-29 [5]: >>1 ^c
- CC50 [5]: 176 ± 6.4 µM
- CC50 ± SD, CCD 841 CoTr [6]: Non-toxic ^b
- SI, LoVo [7]: >>1 ^c
- CC50 [7]: 148 ± 3.7 µM

Compound: COc1cccc2c1C(=O)c1c(O)c3c(c(O)c1C2=O)C[C@@](O)(C(=O)CO)C[C@@H]3O[C@H]1C[C@H](N)[C@H](O)[C@H](C)O1 [Doxorubicin, doxorubicin]
- p53 Conc. ± SD [8]: 7.62 ± 0.17 U/mL
- p53 Fold Change ([8]; versus untreated control): 4.23
- Caspase-3 Conc. ± SD [9]: 0.92 ± 0.23 ng/mL
- Caspase-3 Fold Change ([9]; versus untreated control): 30.67

Compound: Cc1ccc(N2CCN(Cn3nc(CNC(=O)c4c(C)cc(C)nc4S)n(C)c3=S)CC2)cc1 [Compound 11]
- SI, LoVo/Dx [2]: 1.06
- CC50 [2]: 255 ± 4.8 µM
- SI, EPG [3]: 2.28
- CC50 [3]: 119 ± 3.4 µM
- SI, Caco-2 [4]: 4.69
- CC50 [4]: 57.7 ± 4.8 µM
- SI, HT-29 [5]: 1.12
- CC50 [5]: 242 ± 4.1 µM
- CC50 at 24 h [10]: 271 ± 7.1 µM
- SI, LoVo [7]: 1.98
- CC50 [7]: 137 ± 5.7 µM

Compound: Cc1cc(C)c(C(=O)NCc2nn(CN3CCN(c4cccc(Cl)c4)CC3)c(=S)n2C)c(S)n1 [Compound 9, 4,6-dimethyl-N-[(4-methyl-5-thioxo-2-{[4-(3-chlorophenyl)piperazinyl]methyl}-4,5-dihydro-1H-1,2,4-triazol-3-yl)methyl]-2-sulfanylpyridine-3-carboxamide]
- SI, LoVo/Dx [2]: >>1 ^c
- CC50 [2]: 260 ± 4.1 µM
- SI, EPG [3]: >>1 ^c
- CC50 [3]: 231 ± 7.1 µM
- SI, Caco-2 [4]: >>1 ^c
- CC50 [4]: 88.6 ± 7.9 µM
- SI, HT-29 [5]: >>1 ^c
- CC50 [5]: 253 ± 5.7 µM
- CC50 ± SD, CCD 841 CoTr [6]: Non-toxic ^b
- SI, LoVo [7]: >>1 ^c
- CC50 [7]: 152 ± 2.7 µM

Compound: O=c1[nH]cc(F)c(=O)[nH]1 [Compound 5-FU, 5-fluorouracil, reference compound]
- SI, LoVo/Dx [2]: 0.27
- CC50 [2]: 226 ± 2.7 µM
- SI, EPG [3]: 0.55
- CC50 [3]: 111 ± 3.5 µM
- SI, Caco-2 [4]: 0.36
- CC50 [4]: 170 ± 3.7 µM
- SI, HT-29 [5]: 0.14
- CC50 [5]: 428.5 ± 2.7 µM
- CC50 at 24 h [10]: 61.6 ± 3.7 µM
- SI, LoVo [7]: 0.85
- CC50 [7]: 72.2 ± 1.8 µM

Compound: Cc1cc(C)c(C(=O)NCc2nn(CN3CCN(c4ccc([N+](=O)[O-])cc4)CC3)c(=S)n2-c2ccccc2)c(S)n1 [Compound 8]
- SI, LoVo/Dx [2]: >>1 ^c
- CC50 [2]: 321 ± 6.8 µM
- SI, EPG [3]: >>1 ^c
- CC50 [3]: 142 ± 6.3 µM
- SI, Caco-2 [4]: >>1 ^c
- CC50 [4]: 84.3 ± 6.8 µM
- SI, HT-29 [5]: >>1 ^c
- CC50 [5]: 306 ± 4.9 µM
- CC50 ± SD, CCD 841 CoTr [6]: Non-toxic ^b
- SI, LoVo [7]: >>1 ^c
- CC50 [7]: 178 ± 5.3 µM

Compound: O=C(O)c1cn(C2CC2)c2cc(N3CCN(Cc4c(O)ccc5ccccc45)CC3)c(F)cc2c1=O [V]
- IC50 [11]: 0.97 µM

Compound: Cc1cc(C)c(C(=O)NCc2nn(CN3CCN(c4ccc([N+](=O)[O-])cc4)CC3)c(=S)n2C(C)C)c(S)n1 [Compound 13]
- SI, LoVo/Dx [2]: 1.04
- CC50 [2]: 419 ± 6.2 µM
- SI, EPG [3]: 3.63
- CC50 [3]: 120 ± 8.5 µM
- SI, Caco-2 [4]: 2.98
- CC50 [4]: 146 ± 3.6 µM
- SI, HT-29 [5]: 1.11
- CC50 [5]: 393 ± 7.4 µM
- CC50 at 24 h [10]: 436.1 ± 2.7 µM
- SI, LoVo [7]: 2.26
- CC50 [7]: 193 ± 3.7 µM

Compound: Cc1cc(C)c(C(=O)NCc2nn(CN3CCN(c4ccccc4)CC3)c(=S)n2-c2ccccc2)c(S)n1 [Compound 4]
- SI, LoVo/Dx [2]: 1.17
- CC50 [2]: 201 ± 4.1 µM
- SI, EPG [3]: 1.68
- CC50 [3]: 141 ± 2.5 µM
- SI, Caco-2 [4]: 1.78
- CC50 [4]: 133 ± 2.7 µM
- SI, HT-29 [5]: 1.26
- CC50 [5]: 187.6 ± 1.6 µM
- CC50 at 24 h [10]: 236 ± 3.5 µM
- SI, LoVo [7]: 1.18
- CC50 [7]: 201 ± 4.6 µM

Compound: Cc1cc(C)c(C(=O)NCc2nn(CN3CCN(c4cccc(Cl)c4)CC3)c(=S)n2C(C)C)c(S)n1 [Compound 12, 4,6-dimethyl-N-[(4-(propan-2-yl)-5-thioxo-2-{[4-(3-chlorophenyl)piperazinyl]-methyl}-4,5-dihydro-1H-1,2,4-triazol-3-yl)methyl]-2-sulfanylpyridine-3-carboxamide]
- SI, LoVo/Dx [2]: 0.70
- CC50 [2]: 487 ± 5.9 µM
- SI, EPG [3]: 1.30
- CC50 [3]: 263 ± 5.7 µM
- SI, Caco-2 [4]: 1.39
- CC50 [4]: 247 ± 4.9 µM
- SI, HT-29 [5]: 0.73
- CC50 [5]: 471.2 ± 3.7 µM
- CC50 at 24 h [10]: 342.5 ± 3.4 µM
- SI, LoVo [7]: 0.77
- CC50 [7]: 445.9 ± 2.3 µM

Compound: Nn1c(Sc2c(O)c3ccccc3oc2=O)nnc1-c1ccncc1 [II]
- IC50 [12]: 1.93 µM
